Measured values from PMC5618426, “APETx4, a Novel Sea Anemone Toxin and a Modulator of the Cancer-Relevant Potassium Channel KV10.1” (Marine Drugs, 2017).
Values joined by “and” are separate entries in the source; they are usually repeats but may differ in a detail not shown here. Equal entries are not always repeated. Where two headings read alike, the source gives them in different places. Positions of bridges follow the written chain, without caps; N, C: chain ends. No end group written: not given here.

Target: hKV10.1a (hEag1) (Homo sapiens, UniProt O95259)
Assay: two-electrode voltage clamp, KV10.1 in Xenopus laevis oocytes
Format: cell-based
Method: For the expression of the ion channels (rNaV1.4, hNaV1.5, mNaV1.6, hKV1.1, rKV1.3, hKV1.4, hKV1.5, hKV2.1, hKV10.1a and hKV11.1,) in Xenopus oocytes, the plasmids were linearized and subsequently transcribed using the T7 or SP6 mMESSAGE-mMACHINE transcription kit (Ambion®, Carlsbad, CA, USA).
Stage V-VI Xenopus laevis oocytes were isolated by partial ovariectomy. The animals were anesthetized by a 15 min submersion in 0.1% tricaine methane sulfonate (pH 7.0). Isolated oocytes were defolliculated with 2 mg/mL collagenase.
Defolliculated oocytes were injected with 50 nL of cRNA at a concentration of 1 ng/nL using a micro-injector (Drummond Scientific®, Broomall, PA, USA). The oocytes were incubated in a solution containing (in mM): NaCl, 96; KCl, 2; CaCl2, 1.8; MgCl2, 2 and HEPES, 5 (pH 7.4), supplemented with 50 mg/L gentamycin sulfate.
Two-electrode voltage-clamp recordings were performed at room temperature (18–22 °C) using an Geneclamp 500B Voltage and Patch Clamp Amplifier (Axon Instruments, Union City, CA, USA, controlled by a Axon Digidata 1550 Low-Noise Data Acquisition System (Axon Instruments). Whole cell currents from oocytes were recorded 1–4 days after injection. The normal bath solution (ND96) composition was (in mM): NaCl, 96; KCl, 2; CaCl2, 1.8; MgCl2, 2 and HEPES, 5 (pH 7.4). The high potassium solution (HK) composition was in mM): NaCl, 2; KCl, 96; CaCl2, 1.8; MgCl2, 2 and HEPES, 5 (pH 7.4). Voltage and current electrodes were filled with 3 M KCl. Resistances of both electrodes were kept between 0.5 and 1.5 MΩ. The elicited KV1.x end KV2.1 currents were filtered at 500 Hz and sampled at 2 kHz, KV10.1 currents were filtered at 1 kHz and sampled at 2 kHz, hERG currents were filtered at 1 kHz and sampled at 10 kHz and the sodium currents were filtered at 2 kHz and sampled at 20 kHz using a four-pole low-pass Bessel filter. Leak subtraction was performed using a -P/4 protocol.
KV10.1 currents were evoked by 2 s depolarizing pulses to 0 mV from a holding potential of −90 mV. KV11.1 (hERG) peak and tail currents were generated by a 2.5 s prepulse from −90 mV to 40 mV followed by a 2.5 s pulse to −120 mV. KV1.x channel currents were evoked by 500 ms depolarizations to 0 mV from a holding potential of −90 mV followed by a 500 ms pulse to −50 mV. KV2.1 currents were elicited by 500 ms pulses to +20 mV from a holding potential of −90 mV. NaV currents were evoked by a 100 ms depolarizations to 0 mV from the holding potential.
[…]. The curve was fitted with the logistic dose-response equation, y = A1−A2/1+ (IC50/[toxin])^nH + A2 where y represents the percentage of current inhibition, A1 the initial inhibition at the lowest toxin concentration (0%), A2 the final inhibition at the highest toxin concentration, IC50 the half maximal inhibitory toxin concentration and ^nH the Hill coefficient.
The voltage-dependent activation of the KV10.1 channels was investigated by 1000 ms activating steps from the holding potential −90 mV to 65 mV with 5 mV increments. The normalized current amplitudes were plotted against the corresponding pulse potentials and fitted with the Boltzmann equation, y = A1−A2/1+ e^(V−V1/2)/k + A2, where y represents the normalized current (I/Imax), A1 is the initial y-value(-∞) and A2 is the final y-value, Imax is the maximal current, V is the test voltage, V1/2 is the half-maximal voltage and k is the slope factor.
The voltage-dependent inactivation of KV10.1 channels was studied by 1.5 s prepulses from the holding potential ranging from −140 mV to 30 mV with 10 mV steps. These pulses were followed by a 0.5 s test pulse to 30 mV [17]. The normalized peak current amplitudes (I2/I2,max) measured during the test pulse and were plotted against the prepulses and fitted with the Boltzmann equation.
All electrophysiological data are presented as means ± S.E.M of n ≥ 3 independent experiments unless otherwise indicated. […]

[1] = concentration-response curve, logistic fit

Sequence of hKV10.1a (hEag1) (O95259 other isoform, or with tags, fused parts or gaps): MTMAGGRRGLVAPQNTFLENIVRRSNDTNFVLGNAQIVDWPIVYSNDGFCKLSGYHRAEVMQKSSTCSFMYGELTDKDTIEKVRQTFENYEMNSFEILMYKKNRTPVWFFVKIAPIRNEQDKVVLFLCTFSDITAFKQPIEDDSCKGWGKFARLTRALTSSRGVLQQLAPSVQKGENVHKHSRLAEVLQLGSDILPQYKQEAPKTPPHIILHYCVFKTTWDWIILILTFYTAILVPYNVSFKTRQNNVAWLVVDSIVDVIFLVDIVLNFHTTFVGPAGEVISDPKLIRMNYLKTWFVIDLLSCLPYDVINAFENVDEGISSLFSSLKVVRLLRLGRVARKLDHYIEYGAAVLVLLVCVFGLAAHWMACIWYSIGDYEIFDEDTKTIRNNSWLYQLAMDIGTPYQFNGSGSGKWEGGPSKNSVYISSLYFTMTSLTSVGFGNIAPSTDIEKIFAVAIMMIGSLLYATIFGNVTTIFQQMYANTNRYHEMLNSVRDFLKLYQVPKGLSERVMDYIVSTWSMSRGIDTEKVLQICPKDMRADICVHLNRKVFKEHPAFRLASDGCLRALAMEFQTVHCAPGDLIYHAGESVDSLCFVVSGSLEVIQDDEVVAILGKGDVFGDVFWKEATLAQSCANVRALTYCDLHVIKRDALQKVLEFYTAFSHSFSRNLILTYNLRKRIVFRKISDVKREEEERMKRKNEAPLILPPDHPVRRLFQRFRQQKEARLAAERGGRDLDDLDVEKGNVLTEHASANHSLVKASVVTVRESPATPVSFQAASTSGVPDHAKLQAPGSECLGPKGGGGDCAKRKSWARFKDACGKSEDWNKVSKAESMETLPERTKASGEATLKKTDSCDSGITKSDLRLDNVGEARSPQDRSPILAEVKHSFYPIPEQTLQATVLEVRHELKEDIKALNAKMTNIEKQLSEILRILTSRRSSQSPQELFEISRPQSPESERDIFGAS

Sequence: GTTCYCGKTIGIYWFGKYSCPTNRGYTGSCPYFLGICCYPVD (disulfide 4-37, 6-30, 20-38) [APETx4]
- inhibition of the outward KV10.1 current (1.6 µM APETx4, 2 s pulse to 0 mV from −90 mV, ND96, pH 7.4, 18–22 °C, mean ± SEM, n = 3): highest activity on KV10.1
- inhibition at 1.6 µM (1.6 µM APETx4, 2 s pulse to 0 mV from −90 mV, ND96, pH 7.4, 18–22 °C, mean ± SEM, n = 3, read-out: inhibition of the outward KV10.1 current): 76 ± 2%
- slope factor of activation (1.6 µM APETx4, HK solution (96 mM Ko), control 15.3 ± 1.4, n = 3, NS): 13.9 ± 0.8
- half-maximal voltage V1/2 of activation (1.6 µM APETx4, HK solution (96 mM Ko), control 41.3 ± 1.4 mV, n = 3): 50.9 ± 0.8 mV
- shift of V1/2 (1.6 µM APETx4, HK solution (96 mM Ko), n = 3, p < 0.05): 9.6 ± 1.7 mV
- shift of the activation curve towards more positive potentials (1.6 µM APETx4, ND96 (2 mM Ko), Boltzmann fit, n = 3, p < 0.05): 17.7 ± 1.1 mV
- slope factor k of activation (1.6 µM APETx4, ND96 (2 mM Ko), control 20.7 ± 0.6 mV, n = 3, p < 0.05): 17.2 ± 0.3 mV
- half-maximal voltage V1/2 of activation (1.6 µM APETx4, ND96 (2 mM Ko), control 26.4 ± 0.9 mV, n = 3, p < 0.05): 44.1 ± 0.7 mV
- rise time tr (10% to 90%) (1.6 µM APETx4, control 653 ± 42 ms, n = 3, p < 0.05): 1246 ± 96 ms
- time constant τ of KV10.1 activation (1.6 µM APETx4, exponential fit, control 376 ± 60 ms, n = 3, p < 0.05): 1209 ± 229 ms
- reduction of KV10.1 current, pulse to 65 mV (1.6 μM APETx4, from the holding potential, non-normalized inhibited current (1-It/Ic)): 29 ± 6%
- current reduction upon first stimulation after closed-state incubation (1.6 µM APETx4, held at −90 mV for 10 min during addition, pulse to 0 mV, versus control current): 85.2 ± 1.9%
- inhibition at 1.6 µM (1.6 μM APETx4, non-normalized inhibited current (1-It/Ic), read-out: inhibition of KV10.1 current, pulse −90 mV to 0 mV): 79 ± 4%
- time constant τ of onset of inhibition (normalized current decrease) (1.6 µM APETx4, one phase decay fit of I/Imax versus incubation time): 97 ± 7 s
- voltage dependence of current inhibition (1.6 μM APETx4, reduced inhibition at more positive potentials, HK solution): a similar effect was observed
- IC50 (7 concentrations, logistic fit, 2 s pulse to 0 mV from −90 mV, ND96, mean ± SEM, n ≥ 3, read-out: IC50 for KV10.1 current inhibition): 1.01 ± 0.01 µM
- inward current at negative pulse potentials (HK solution (96 mM Ko), after toxin addition (1.6 µM)): no inward currents were observed
- Hill coefficient [1]: 3.8 ± 0.3 and ~ 4
- maximal current inhibition [1]: 88.3 ± 0.9%
- inactivation properties of KV10.1 (two-pulse protocol, prepulse −140 to 30 mV, test pulse 30 mV, control or toxin condition): No apparent inactivation was observed
